Laboratory results taken from PubChem BioAssay (NCI).
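GI50 marks 50% less growth. TGI: concentration producing complete growth inhibition.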

Columns and labels:
Assay in all cases: NCI-60 cell line screen, 384-well format
786-0 renal = tested on: 786-0 renal
OVCAR-8 ovarian = tested on: OVCAR-8 ovarian
PC-3 prostate = tested on: PC-3 prostate
SNB-19 CNS = tested on: SNB-19 CNS
LOX IMVI melanoma = tested on: LOX IMVI melanoma
MDA-MB-468 breast = tested on: MDA-MB-468 breast
A498 renal = tested on: A498 renal
HOP-62 NSCLC = tested on: HOP-62 NSCLC
OVCAR-4 ovarian = tested on: OVCAR-4 ovarian
T-47D breast = tested on: T-47D breast
HOP-92 NSCLC = tested on: HOP-92 NSCLC
NCI-H23 lung = tested on: NCI-H23 lung
SK-OV-3 ovarian = tested on: SK-OV-3 ovarian
DU-145 prostate = tested on: DU-145 prostate
UACC-62 melanoma = tested on: UACC-62 melanoma
HT29 colon = tested on: HT29 colon
HCT-15 colon = tested on: HCT-15 colon
OVCAR-5 ovarian = tested on: OVCAR-5 ovarian
TK-10 renal = tested on: TK-10 renal
SF-295 CNS = tested on: SF-295 CNS
NCI-H226 lung = tested on: NCI-H226 lung
RPMI-8226 leukemia = tested on: RPMI-8226 leukemia
SK-MEL-5 melanoma = tested on: SK-MEL-5 melanoma
HL-60(TB) leukemia = tested on: HL-60(TB) leukemia
MALME-3M melanoma = tested on: MALME-3M melanoma
NCI/ADR-RES ovarian = tested on: NCI/ADR-RES ovarian
NCI-H460 NSCLC = tested on: NCI-H460 NSCLC
NCI-H522 lung = tested on: NCI-H522 lung
HCT-116 colon = tested on: HCT-116 colon
MCF7 breast = tested on: MCF7 breast
HCC-2998 colon = tested on: HCC-2998 colon
HS 578T breast = tested on: HS 578T breast
U251 glioblastoma = tested on: U251 glioblastoma
MDA-MB-231 breast = tested on: MDA-MB-231 breast
SNB-75 CNS = tested on: SNB-75 CNS
KM12 colon = tested on: KM12 colon
COLO 205 colon = tested on: COLO 205 colon
IGROV1 ovarian = tested on: IGROV1 ovarian
BT-549 breast = tested on: BT-549 breast
SW-620 colon = tested on: SW-620 colon
MOLT-4 leukemia = tested on: MOLT-4 leukemia
ACHN renal = tested on: ACHN renal
SF-268 CNS = tested on: SF-268 CNS
M14 melanoma = tested on: M14 melanoma
A549 NSCLC = tested on: A549 NSCLC
CAKI-1 renal = tested on: CAKI-1 renal
EKVX NSCLC = tested on: EKVX NSCLC
MDA-MB-435 melanoma = tested on: MDA-MB-435 melanoma
SF-539 CNS = tested on: SF-539 CNS
NCI-H322M lung = tested on: NCI-H322M lung
RXF 393 renal = tested on: RXF 393 renal
UACC-257 melanoma = tested on: UACC-257 melanoma
CCRF-CEM leukemia = tested on: CCRF-CEM leukemia
K-562 leukemia = tested on: K-562 leukemia
UO-31 renal = tested on: UO-31 renal
SK-MEL-28 melanoma = tested on: SK-MEL-28 melanoma
SN12C renal = tested on: SN12C renal
OVCAR-3 ovarian = tested on: OVCAR-3 ovarian

SMILES: CN(C(=O)c1ccc(F)cc1C(F)(F)F)C1CCN(c2nnc(-c3ccnn3C)c3ccccc23)CC1
- GI50 ([…]-0 renal): > 100 µM
- TGI (786-0 renal): > 100 µM
- GI50 (OVCAR-8 ovarian): 34.7 µM
- TGI (OVCAR-8 ovarian): > 100 µM
- GI50 (PC-3 prostate): 44.5 µM
- TGI (PC-3 prostate): > 100 µM
- GI50 (SNB-19 CNS): 89.5 µM
- TGI (SNB-19 CNS): > 100 µM
- GI50 (LOX IMVI melanoma): 46.3 µM
- TGI (LOX IMVI melanoma): > 100 µM
- GI50 (MDA-MB-468 breast): 3.8 µM
- TGI (MDA-MB-468 breast): 21.3 µM
- GI50 (A498 renal): 46.7 µM
- TGI (A498 renal): > 100 µM
- GI50 (HOP-62 NSCLC): 13.9 µM
- TGI (HOP-62 NSCLC): > 100 µM
- GI50 (OVCAR-4 ovarian): 67.4 µM
- TGI (OVCAR-4 ovarian): > 100 µM
- GI50 (T-47D breast): 2.73 µM
- TGI (T-47D breast): 12.5 µM
- GI50 (HOP-92 NSCLC): 48.3 µM
- TGI (HOP-92 NSCLC): > 100 µM
- GI50 (NCI-H23 lung): 30.1 µM
- TGI (NCI-H23 lung): > 100 µM
- GI50 (SK-OV-3 ovarian): 89.2 µM
- TGI (SK-OV-3 ovarian): > 100 µM
- GI50 (DU-145 prostate): 86.2 µM
- TGI (DU-145 prostate): > 100 µM
- GI50 (UACC-62 melanoma): > 100 µM
- TGI (UACC-62 melanoma): > 100 µM
- GI50 (HT29 colon): 76.6 µM
- TGI (HT29 colon): > 100 µM
- GI50 (HCT-15 colon): 44.4 µM
- TGI (HCT-15 colon): > 100 µM
- GI50 (OVCAR-5 ovarian): > 100 µM
- TGI (OVCAR-5 ovarian): > 100 µM
- GI50 (TK-10 renal): > 100 µM
- TGI (TK-10 renal): > 100 µM
- GI50 (SF-295 CNS): > 100 µM
- TGI (SF-295 CNS): > 100 µM
- GI50 (NCI-H226 lung): 32.1 µM
- TGI (NCI-H226 lung): > 100 µM
- GI50 (RPMI-8226 leukemia): 22.5 µM
- TGI (RPMI-8226 leukemia): > 100 µM
- GI50 (SK-MEL-5 melanoma): 8.15 µM
- TGI (SK-MEL-5 melanoma): 21.2 µM
- GI50 (HL-60(TB) leukemia): 18.7 µM
- TGI (HL-60(TB) leukemia): 43.9 µM
- GI50 (MALME-3M melanoma): 65 µM
- TGI (MALME-3M melanoma): > 100 µM
- GI50 (NCI/ADR-RES ovarian): 33.3 µM
- TGI (NCI/ADR-RES ovarian): > 100 µM
- GI50 (NCI-H460 NSCLC): 35.7 µM
- TGI (NCI-H460 NSCLC): > 100 µM
- GI50 (NCI-H522 lung): 35.5 µM
- TGI (NCI-H522 lung): > 100 µM
- GI50 (HCT-116 colon): 47.7 µM
- TGI (HCT-116 colon): > 100 µM
- GI50 (MCF7 breast): 29.9 µM
- TGI (MCF7 breast): > 100 µM
- GI50 (HCC-2998 colon): 22.4 µM
- TGI (HCC-2998 colon): > 100 µM
- GI50 (HS 578T breast): > 100 µM
- TGI (HS 578T breast): > 100 µM
- GI50 (U251 glioblastoma): 54.3 µM
- TGI (U251 glioblastoma): > 100 µM
- GI50 (MDA-MB-231 breast): 47 µM
- TGI (MDA-MB-231 breast): > 100 µM
- GI50 (SNB-75 CNS): 58.5 µM
- TGI (SNB-75 CNS): > 100 µM
- GI50 (KM12 colon): > 100 µM
- TGI (KM12 colon): > 100 µM
- GI50 (COLO 205 colon): 42.9 µM
- TGI (COLO 205 colon): > 100 µM
- GI50 (IGROV1 ovarian): > 100 µM
- TGI (IGROV1 ovarian): > 100 µM
- GI50 (BT-549 breast): 26.7 µM
- TGI (BT-549 breast): > 100 µM
- GI50 (SW-620 colon): > 100 µM
- TGI (SW-620 colon): > 100 µM
- GI50 (MOLT-4 leukemia): 13 µM
- TGI (MOLT-4 leukemia): 26.4 µM
- GI50 (ACHN renal): > 100 µM
- TGI (ACHN renal): > 100 µM
- GI50 (SF-268 CNS): 13.9 µM
- TGI (SF-268 CNS): 71 µM
- GI50 (M14 melanoma): 58.1 µM
- TGI (M14 melanoma): > 100 µM
- GI50 (A549 NSCLC): 44.8 µM
- TGI (A549 NSCLC): > 100 µM
- GI50 (CAKI-1 renal): 47.6 µM
- TGI (CAKI-1 renal): > 100 µM
- GI50 (EKVX NSCLC): 21.5 µM
- TGI (EKVX NSCLC): > 100 µM
- GI50 (MDA-MB-435 melanoma): 63.1 µM
- TGI (MDA-MB-435 melanoma): > 100 µM
- GI50 (SF-539 CNS): > 100 µM
- TGI (SF-539 CNS): > 100 µM
- GI50 (NCI-H322M lung): 28 µM
- TGI (NCI-H322M lung): > 100 µM
- GI50 (RXF 393 renal): 20.9 µM
- TGI (RXF 393 renal): 74.4 µM
- GI50 (UACC-257 melanoma): 32 µM
- TGI (UACC-257 melanoma): > 100 µM
- GI50 (CCRF-CEM leukemia): 12.9 µM
- TGI (CCRF-CEM leukemia): 44.8 µM
- GI50 (K-562 leukemia): 15.1 µM
- TGI (K-562 leukemia): > 100 µM
- GI50 (UO-31 renal): 58.7 µM
- TGI (UO-31 renal): > 100 µM
- GI50 (SK-MEL-28 melanoma): > 100 µM
- TGI (SK-MEL-28 melanoma): > 100 µM
- GI50 (SN12C renal): > 100 µM
- TGI (SN12C renal): > 100 µM
- GI50 (OVCAR-3 ovarian): 85.6 µM
- TGI (OVCAR-3 ovarian): > 100 µM
